Biological target: Lysine-specific histone demethylase 1A (Homo sapiens, UniProt O60341)
Assay: Biological Activity Assay: Assaying the inhibition of KDM1A can be determined in vitro, in cultured cells, and in animals. There are a variety of spectrophotometric methods to detect the results of demethylation of methylated lysines, viz., detecting the products of KDM1A demethylase oxidative activity on a peptide fragment of at least 18 amino acid representing the N-terminus of the histone H3 substrate that contains a monomethyl at the fourth lysine residue. Hydrogen peroxide, one product of the KDM1A demethylase reaction, reacts with horseradish peroxidase and dihydroxyphenoxazine (ADHP) to produce the fluorescent compound resorufin (excitation=530-560 nm:emission=590 nm). The KDM1A demethylase enzyme activity can obtained from mammalian cells or tissues expressing KDM1A from an endogenous or recombinant gene and purified or assayed from a whole cell extract. These methods can be used to determine the concentration of the disclosed compounds can inhibit fifty percent of the enzyme activity (IC50).

| Structure (SMILES) | IC50 |
| --- | --- |
| COc1ccc([C@@H]2C[C@H]2NC(=O)COC[C@H](NC(=O)c2ccc(F)cc2)C(=O)N2CCOCC2)cc1 | > 1 µM |
| O=C(N[C@@H](COCCN[C@@H]1C[C@H]1c1ccc(F)cc1)C(=O)N1CCOCC1)c1ccc(F)cc1 | < 1 µM |

Source: ChEMBL document CHEMBL5728197, “KDM1A inhibitors for the treatment of disease” (2021)
